Tests used:
Assay in all cases: relative viability (nuclei count vs DMSO), 5 days (fraction); higher = more cells survive
[1] = compound: C1CC2=C(C1)C=C(C=C2)OC3=NC(=C4C(=N3)N(C=N4)CC5=CC=C(C=C5)C6=CC=CC=C6)N[C@@H](CC7=CC=CC=C7)CO [QS11] + CS(=O)(=O)N1CCN(Cc2cc3nc(-c4cccc5[nH]ncc45)nc(N4CCOCC4)c3s2)CC1 [Pictilisib] (partner 1 µM)
Procedure, shortened: (§1)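 The day after seeding in 1536-well plates, lung cancer cell lines were treated by pin tool with a single drug, or with a fixed anchor-drug dose together with five library-drug doses (not always all listed) in √10 steps. After 5 days, a combined fix-and-stain solution (final 0.05% Triton X-100, 1% formaldehyde, 1 ug/ml Hoechst) was added. Nuclei counted on 4× images gave relative viability as treated counts over vehicle counts, reported as the median of duplicate plates.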

[2] = compound: C1CC2=C(C1)C=C(C=C2)OC3=NC(=C4C(=N3)N(C=N4)CC5=CC=C(C=C5)C6=CC=CC=C6)N[C@@H](CC7=CC=CC=C7)CO [QS11] + CC(=O)c1c(C)c2cnc(Nc3ccc(N4CCNCC4)cn3)nc2n(C2CCCC2)c1=O [Palbociclib] (partner 0.5 µM)
Procedure, shortened: as §1

[3] = compound: C[As](C)SC[C@H](NC(=O)CC[C@H](N)C(=O)O)C(=O)NCC(=O)O [Darinaparsin] + CC1(C)CCC(c2ccc(Cl)cc2)=C(CN2CCN(c3ccc(C(=O)NS(=O)(=O)c4ccc(N[C@H](CCN5CCOCC5)CSc5ccccc5)c(S(=O)(=O)C(F)(F)F)c4)cc3)CC2)C1 [Navitoclax] (partner 0.5 µM)
Procedure, shortened: as §1

[4] = compound: C[As](C)SC[C@H](NC(=O)CC[C@H](N)C(=O)O)C(=O)NCC(=O)O [Darinaparsin] + C[C@]1(O)C[C@@H](c2nc(-c3ccc4ccc(-c5ccccc5)nc4c3)c3c(N)nccn32)C1 [Linsitinib] (partner 1 µM)
Procedure, shortened: as §1

Cell Line	relative viability ([1]; first compound 0.08 µM)	relative viability ([1]; first compound 0.253 µM)	relative viability ([1]; first compound 0.8 µM)	relative viability ([1]; first compound 2.53 µM)	relative viability ([1]; first compound 8 µM)	relative viability ([2]; first compound 0.08 µM)	relative viability ([2]; first compound 0.253 µM)	relative viability ([2]; first compound 0.8 µM)	relative viability ([2]; first compound 2.53 µM)	relative viability ([2]; first compound 8 µM)	relative viability ([3]; first compound 0.08 µM)	relative viability ([3]; first compound 0.8 µM)	relative viability ([3]; first compound 2.53 µM)	relative viability ([3]; first compound 8 µM)	relative viability ([4]; first compound 0.08 µM)	relative viability ([4]; first compound 0.8 µM)	relative viability ([4]; first compound 2.53 µM)	relative viability ([4]; first compound 8 µM)
NCI-H1651	0.604	0.657	0.53	0.471	0.439	0.542	0.53	0.4	0.48	0.581	1.11	1.01	0.863	0.999	1.21	1.08	0.938	1.13
NCI-H1666	0.328	0.359	0.377	0.474	0.423	0.641	0.651	0.586	0.621	0.516	1.09	0.938	1.23	1.09	0.996	0.884	0.994	0.931
NCI-H1734	0.44	0.433	0.408	0.38	0.358	0.374	0.389	0.31	0.32	0.324	1.07	0.947	0.806	1.11	1.23	0.917	0.674	0.932
NCI-H1755	0.466	0.404	0.41	0.408	0.393	0.461	0.476	0.399	0.402	0.427	1.08	0.967	0.941	1.2	1.07	0.969	1.02	1.13
NCI-H1792	–	0.238	0.289	0.235	0.307	0.679	0.886	0.491	0.667	0.741	1.03	0.652	0.393	0.665	0.571	0.488	0.402	0.536
NCI-H1793	0.259	0.329	0.356	0.309	0.31	0.335	0.274	0.29	0.404	0.491	0.649	0.366	0.333	0.442	0.919	1.01	0.769	1.22
NCI-H1915	0.958	0.932	–	0.896	0.937	0.53	0.644	–	0.5	0.486	0.88	0.82	0.771	0.812	1.11	1.09	1.03	1.13
NCI-H1944	0.331	0.346	–	0.353	0.39	0.312	0.344	–	0.275	0.254	1.06	1.07	1.04	1.06	1.14	1.3	1.23	1.35
NCI-H1975	0.289	0.234	0.327	0.364	0.478	0.555	0.531	0.58	0.74	0.733	1.26	1.15	1.11	1.45	1.11	1.01	0.944	1.26
NCI-H1993	0.843	0.935	0.799	0.875	0.635	0.646	0.544	0.59	0.708	0.641	0.801	0.836	1.04	1.16	0.65	0.7	0.699	0.695
NCI-H2009	0.726	0.776	0.747	0.711	0.626	0.203	0.233	0.209	0.181	0.17	1.35	1.11	1.11	1.06	1.29	1.18	1.13	1.15
NCI-H2023	0.255	0.224	0.291	0.309	0.283	0.42	0.397	0.302	0.36	0.29	1.08	1.07	0.951	1.2	0.7	0.669	0.604	0.858
NCI-H2085	0.432	0.404	0.456	0.432	0.519	0.474	0.509	0.402	0.433	0.475	1.36	1.18	1.09	1.2	0.935	0.864	0.889	1.05
NCI-H2087	0.799	0.836	0.926	1.03	1.13	0.249	0.27	0.247	0.2	0.197	1.3	1.04	1.01	1.13	1.07	0.997	1.01	0.94
NCI-H2126	0.489	0.444	0.503	0.501	0.476	0.345	0.381	0.341	0.343	0.304	0.949	0.835	0.856	0.86	0.815	0.756	0.589	0.803
NCI-H2228	0.254	0.507	0.513	0.427	0.319	0.753	0.741	1.06	0.641	1.01	0.856	0.996	1.02	0.825	0.817	0.702	0.743	0.746
NCI-H2347	0.537	0.715	0.699	0.606	0.666	0.375	0.476	0.414	0.4	0.354	0.77	0.777	0.748	0.707	1	0.942	0.911	1.03
NCI-H2405	0.393	0.412	0.468	0.756	0.567	0.544	0.541	0.488	0.536	0.502	0.801	0.829	0.781	0.88	1.01	0.91	0.812	0.887
NCI-H3122	0.566	0.693	0.467	0.71	0.722	0.171	0.225	–	0.188	0.18	1.11	1.08	1.06	1.11	1.1	1.08	1.08	1.03
PC-3 [JPC-3]	0.699	0.652	0.707	0.648	0.601	–	0.586	0.396	0.595	0.575	0.832	0.748	0.767	0.825	0.961	0.955	1.06	1.05
PC-14	0.658	0.639	0.667	0.569	0.604	–	0.608	0.455	0.44	0.434	1.19	0.981	1.04	1.17	1.04	0.94	0.896	1.09
RERF-LC-KJ	0.628	0.563	0.506	0.517	0.497	1.08	0.999	0.724	0.895	0.874	1.08	0.92	0.749	1.08	1.03	0.979	0.876	0.946
SK-LU-1	0.455	0.679	0.534	0.552	0.531	0.345	0.419	0.336	0.365	0.376	0.986	0.807	0.671	1.02	1.35	0.976	1.07	1.35
SK-MES-1	0.379	0.315	0.381	0.306	0.311	0.322	0.285	0.268	0.311	0.295	1.33	1.18	1.17	1.54	1.15	0.99	0.812	1.25
SW 1573	0.53	0.481	0.425	0.311	0.298	0.388	0.35	0.339	0.223	0.161	1.23	0.991	1.01	0.992	0.935	0.811	0.874	0.906
UMC-11	0.748	0.844	0.899	0.901	1.12	0.307	0.343	0.378	0.343	0.337	0.339	0.313	0.305	0.311	1.04	1.07	0.862	1.32

— the supplement of paper PMC10307832
